Laboratory results as given in patent EP0816848A1, “Method for comparative screening of substances with pharmacological activity” (BOEHRINGER INGELHEIM INTERNATIONAL GmbH, priority 1996, dated 1998).
Blank lines part the entries; values can stand above or below the compound they belong to.

Experiments:
H-ras^Val12 [1] = test: Detection of inhibition of Ras farnesylation (immunoprecipitation, SDS gel, Western blot) in FHRV12cc21 cells; assay type: cell-based, mouse; details: 5 µM, 48 h, 1% IL-3
Experimental: Nachweis der H-ras^Val12 Expression FHRV12cc21 und untransfizierte FDC-P1 Zellen wurden in IMDM Medium mit 10% FCS und 1% IL-3 gezüchtet. Zum Nachweis der Hemmung der posttranslationalen Modifikation von H-ras^Val12 durch Farnesylierung wurden die Zellen für 48 Stunden mit 5 µM des Protein-Farnesyltransferase-Inhibitors L-739.749 (Kohl et al., 1994) inkubiert. Die Zellen wurden mit PBS gewaschen und in PBSTDS (1% Triton X-100, 0.5% Natriumdesoxycholat, 0.1% Natriumdodecylsulfat in PBS) 5 min bei 4°C lysiert. Die Zellysate wurden durch Zentrifugation (20 min 14.000x g, 4°C) geklärt. Ras Proteine wurden durch Zusatz von 1 µg monoklonalen Ratten Antikörper Y13-238 (Oncogene Science) und Protein-G Plus / Protein-A Agarose (Oncogene Science) über Nacht bei 4°C immunpräzipitiert. Die Präzipitate wurden zweimal mit PBSTDS Puffer gewaschen und anschließend in SDS-Probenpuffer mit 3% β-Mercaptoethanol ausgenommen. Die Proteine wurden in einem 20%igen SDS-Polyacrylamidgel aufgetrennt, auf eine Immobilon-Membran (Millipore) transferiert und nach Absättigen der Membran mit 10% FCS, 1% Rinderserumalbumin, 1% Tween-20 in PBS, durch aufeinanderfolgende Inkubation mit einem Ras^Val12 spezifischen monoklonalen Antikörper (pan-Ras^Val12, Oncogene Science) und einem sekundären anti-Maus-IgG - Alkalische Phosphatase-Konjugat durch Färbereaktion mit NBT und BCIP (Promega) nachgewiesen. […]

H-ras^Val12 [2] = test: Inhibition of IL-3 independent growth of H-ras^Val12 transfected FDC-P1 cells (FHRV12cc21), viability by MTS assay; assay type: cell-based, mouse; details: IL-3 free medium, relative absorption (Fig. 1)
Experimental: (§1) FDC-P1 Zellen (Dexter et al., 1980) wurden in IMDM Medium (BioWhittaker), versetzt mit 10% hitzeinaktiviertem fötalem Kälberserum (FCS), 2 mM Glutamin, 50 µM β-Mercaptoäthanol und 1% IL-3 angesetzt und bei 37°C in 5% CO2 inkubiert. 10^7 Zellen pro Transfektion wurden 5 min bei 1200 UpM bei Raumtemperatur abzentrifugiert (Heraeus Minifuge), einmal mit serumfreiem RPMI-1640 Medium gewaschen, und in 1 ml serumfreiem Medium suspendiert. 800 µl dieser Zellsuspension wurden in einer Elektroporationsküvette mit 20 µg Plasmid pGDV12ras gemischt und mit einem einzelnen Stromstoß von 280 V, 980 µF und 1000 ms elektroporiert (Progenetor II, Hoefer Instruments). Die Zellen wurden in 10 ml Kulturmedium mit 1% IL-3 verdünnt und bei 37°C, 5% CO2 inkubiert. Zwei Tage nach der Transfektion wurden die Zellen mit frischem Medium 3-fach verdünnt und 250 µg/ml G-418 zur Selektion auf Neomycin-resistenz zugesetzt. An den darauffolgenden Tagen wurde die G-418 Konzentration auf 500, 750 und 1000 µg/ml erhöht. Tote Zellen wurden mittels Zentrifugation durch einen Ficoll-Gradienten entfernt. Dazu wurden die Zellen zuerst mittels Zentrifugation (5 min, 1200 UpM) in einem geringen Volumen aufkonzentriert und in einem Zentrifugenröhrchen über Ficoll-Paque (Pharmacia) geschichtet. […]

H-ras^Val12 [3] = test: Inhibition of IL-3 independent growth of H-ras^Val12 transfected FDC-P1 cells (FHRV12cc21), DNA synthesis by [3H]thymidine incorporation; assay type: cell-based, mouse; details: IL-3 free medium (Fig. 2)
Experimental: as §1

EGF-Rezeptor = EGF-Rezeptor (Homo sapiens, UniProt P00533); test: c-fos promoter luciferase reporter assay in KB-B4 cells, EGF-induced; assay type: cell-based; details: 1 ng/ml EGF, 6 h (Fig. 6)
Sequence of EGF-Rezeptor (P00533 25-1210): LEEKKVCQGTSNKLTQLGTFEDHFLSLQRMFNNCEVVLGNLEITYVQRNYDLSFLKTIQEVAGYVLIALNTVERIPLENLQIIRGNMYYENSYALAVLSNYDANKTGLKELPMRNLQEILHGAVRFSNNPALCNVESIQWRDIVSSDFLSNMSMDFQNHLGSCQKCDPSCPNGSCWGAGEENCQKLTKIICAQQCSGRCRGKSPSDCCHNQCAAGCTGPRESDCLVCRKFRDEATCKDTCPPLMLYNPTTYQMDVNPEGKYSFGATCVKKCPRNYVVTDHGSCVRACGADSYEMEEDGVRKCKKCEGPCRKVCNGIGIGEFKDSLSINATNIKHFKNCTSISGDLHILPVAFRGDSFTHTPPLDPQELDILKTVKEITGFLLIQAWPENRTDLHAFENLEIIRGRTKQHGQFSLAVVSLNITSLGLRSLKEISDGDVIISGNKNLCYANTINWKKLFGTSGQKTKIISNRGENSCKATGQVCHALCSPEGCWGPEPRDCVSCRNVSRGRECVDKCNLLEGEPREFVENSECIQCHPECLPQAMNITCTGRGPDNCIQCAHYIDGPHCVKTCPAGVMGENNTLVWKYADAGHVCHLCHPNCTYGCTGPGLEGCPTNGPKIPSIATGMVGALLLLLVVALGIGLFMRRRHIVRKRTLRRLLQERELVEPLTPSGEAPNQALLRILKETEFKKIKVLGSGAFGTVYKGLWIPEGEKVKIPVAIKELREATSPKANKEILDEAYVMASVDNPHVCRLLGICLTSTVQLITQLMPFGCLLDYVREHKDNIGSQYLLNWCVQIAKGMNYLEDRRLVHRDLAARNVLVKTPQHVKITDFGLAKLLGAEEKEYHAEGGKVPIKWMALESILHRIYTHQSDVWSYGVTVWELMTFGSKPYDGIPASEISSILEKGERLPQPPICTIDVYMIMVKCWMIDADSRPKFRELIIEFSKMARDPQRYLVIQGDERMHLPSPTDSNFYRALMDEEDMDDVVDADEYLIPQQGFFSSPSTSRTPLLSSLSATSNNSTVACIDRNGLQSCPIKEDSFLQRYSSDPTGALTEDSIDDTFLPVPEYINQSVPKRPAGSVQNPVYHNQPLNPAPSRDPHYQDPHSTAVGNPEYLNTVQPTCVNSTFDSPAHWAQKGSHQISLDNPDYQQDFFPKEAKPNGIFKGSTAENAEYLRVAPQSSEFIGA

Ras = molecular target: T1, Ras (Homo sapiens, UniProt P01112, G12V); test: Proliferation assay (MTS) dose-response, Ras test cell line ("FHR V12"); assay type: cell-based; details: Ras test cell line "FHR V12" (Fig. 7)
T1 construct: expressed in transfected cells
T1 sequence (P01112 1-186 G12V): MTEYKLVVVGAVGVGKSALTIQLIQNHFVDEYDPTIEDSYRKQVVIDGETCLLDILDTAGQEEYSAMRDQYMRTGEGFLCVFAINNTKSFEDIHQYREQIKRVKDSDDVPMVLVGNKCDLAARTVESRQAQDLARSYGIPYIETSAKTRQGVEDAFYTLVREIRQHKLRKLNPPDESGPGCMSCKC
Experimental: as §1

HER-2 = molecular target: T2, HER-2 (Homo sapiens, UniProt P04626, V659E); test: Proliferation assay (MTS) dose-response, HER-2 test cell line; assay type: cell-based; details: HER-2 test cell line (Fig. 7)
T2 construct: enthält nun die komplette kodierende Region der mutierten, konstitutiv aktiven Form HER2(V659E); expressed in transfected cells
T2 sequence (P04626 23-1255 V659E): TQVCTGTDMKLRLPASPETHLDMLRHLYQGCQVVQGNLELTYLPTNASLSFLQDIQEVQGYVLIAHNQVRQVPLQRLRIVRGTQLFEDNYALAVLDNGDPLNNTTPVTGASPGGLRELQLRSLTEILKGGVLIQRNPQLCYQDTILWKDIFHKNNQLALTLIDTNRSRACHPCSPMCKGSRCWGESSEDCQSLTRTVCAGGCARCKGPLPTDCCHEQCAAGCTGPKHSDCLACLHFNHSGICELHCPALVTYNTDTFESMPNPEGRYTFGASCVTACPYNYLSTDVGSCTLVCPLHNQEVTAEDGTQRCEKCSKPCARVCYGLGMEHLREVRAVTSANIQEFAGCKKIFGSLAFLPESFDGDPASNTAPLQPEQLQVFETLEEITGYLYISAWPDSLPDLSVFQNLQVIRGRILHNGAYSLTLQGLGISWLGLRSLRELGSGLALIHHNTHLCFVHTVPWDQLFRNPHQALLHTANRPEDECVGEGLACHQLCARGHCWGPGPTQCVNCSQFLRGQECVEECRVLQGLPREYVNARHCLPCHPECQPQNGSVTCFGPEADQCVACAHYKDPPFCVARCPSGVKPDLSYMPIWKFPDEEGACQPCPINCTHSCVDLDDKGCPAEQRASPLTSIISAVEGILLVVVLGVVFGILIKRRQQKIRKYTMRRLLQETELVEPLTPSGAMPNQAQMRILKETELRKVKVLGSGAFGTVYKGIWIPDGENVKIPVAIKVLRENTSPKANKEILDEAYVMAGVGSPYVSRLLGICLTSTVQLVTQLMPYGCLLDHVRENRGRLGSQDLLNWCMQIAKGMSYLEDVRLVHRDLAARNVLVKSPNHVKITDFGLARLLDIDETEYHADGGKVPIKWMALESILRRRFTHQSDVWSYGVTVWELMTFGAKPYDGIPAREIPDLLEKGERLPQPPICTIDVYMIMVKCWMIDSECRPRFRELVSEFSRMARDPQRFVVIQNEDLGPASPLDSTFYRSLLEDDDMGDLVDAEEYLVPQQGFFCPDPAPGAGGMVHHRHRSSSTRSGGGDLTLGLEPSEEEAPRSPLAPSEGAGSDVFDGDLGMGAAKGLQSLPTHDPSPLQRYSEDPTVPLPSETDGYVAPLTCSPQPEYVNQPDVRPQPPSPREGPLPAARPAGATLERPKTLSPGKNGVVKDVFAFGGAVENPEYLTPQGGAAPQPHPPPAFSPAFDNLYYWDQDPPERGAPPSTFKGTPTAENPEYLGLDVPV
Experimental: FDC-P1-Zellen (Dexter et al., 1980), die IL-3-abhängig wachsen, wurden mit Plasmid pAHygCMVHer2(V659E) folgendermaßen transfiziert: Etwa 1x10^7 Zellen wurden in IMDM-Medium (Bio-Whittaker) mit 10 µg Plasmid DNA gemischt und mit einem Elektroporator (Hoefer, Progenetor II) bei 980 µF, 280 V für 1000 ms elektroporiert. Die Zellen wurden in IMDM-Medium in Anwesenheit von 10% hitzeinaktiviertem fötalem Kälberserum, 50 µM β-Mercaptoethanol, Standardantibiotika, und 1% IL-3 bei 37°C unter 5% CO2 gehalten und durch Zugabe von 300 mg/l Hygromycin B (Boehringer Mannheim) selektioniert. Nach erfolgreicher Selektion wurden die Zellen langsam von IL-3 entwöhnt, der IL-3-unabhängig wachsende Zellpool anschließend in Methocel subkloniert. Einzelne Klone wurden gepickt und in Medium ohne IL-3 hochgezogen.
Einzelne Klone wurden in einem Fluoreszenz-aktivierten Zell-Sorter (Becton-Dickinson, FACSort) auf Oberflächenexpression von HER2 getestet, dabei wurde als primärer Antikörper ein gegen die extrazelluläre Domäne von HER2 gerichteter Maus-Antikörper verwendet (Oncogene Science, c-neu (Ab-2)), und als sekundärer Antikörper ein Fluorescein Isothiocyanat (FITC)-konjugierter anti-Maus IgG Antikörper (Dianova, Hamburg). Der Subklon mit der besten Oberflächenexpression von HER2(V659E), genannt FDCP/Her2-C42#16, wurde für das Screenen verwendet. […]

HGF-R = test: Proliferation assay (MTS) dose-response, HGF-R test cell line ("TPRmet"); assay type: cell-based, human; details: HGF-R test cell line "TPRmet" (Fig. 7)

Compound: CC[C@H](C)[C@@H](CO[C@@H](Cc1ccccc1)C(=O)N[C@@H](CCS(C)(=O)=O)C(=O)OC)NC[C@@H](N)CS [L-739.749, 2(S)-{2(S)-[2(R)-Amino-3-mercapto]propylamino-3(S)-methyl}pentyloxy-3-phenylpropionylmethioninsulfonmethyl ester]
Ras-Protein in der unmodifizierten (nicht farnesylierten) Form (H-ras^Val12 [1]): > 50%
Hemmung der H-ras^Val12 abhängigen Proliferation (Viabilität) (H-ras^Val12 [2]): Hemmung der H-ras^Val12 abhängigen Proliferation (Viabilität)
Hemmung der H-ras^Val12 abhängigen Proliferation (DNA-Synthese) (H-ras^Val12 [3]): Hemmung der H-ras^Val12 abhängigen Proliferation (DNA-Synthese)

Inhibierung der Luciferase-Induktion durch EGF (EGF-Rezeptor): inhibitorische Wirkung
Compound: COc1cc2ncnc(Nc3cccc(C)c3)c2cc1OC [6,7-Dimethoxy-4-(3-methylphenylamino)chinazolin]

Konzentration, bei der Effekte auf die Proliferation der Zellen zu messen sind, relative to IC50 on the EGF-dependent cell line (Ras): ≥ 100 fach
Konzentration, bei der Effekte auf die Proliferation der Zellen zu messen sind, relative to IC50 on the EGF-dependent cell line (HER-2): ≥ 100 fach
Compound: Clc1cccc(Nc2ncnc3cnc(NC4CC4)nc23)c1 [4-[(3-Chlorphenyl)amino]-6-(cyclopropylamino)-pyrimido-[5,4-d]pyrimidin]
Konzentration, bei der Effekte auf die Proliferation der Zellen zu messen sind, relative to IC50 on the EGF-dependent cell line (HGF-R): ≥ 100 fach
